Counter-ions that a name gives are not always drawn.
Tests used:
Assay type in all cases: biochemical
Conditions in all cases: HeLa S3 lysate, sfGFP/mCherry ratio, 2 hrs at 30° C.
KRAS G12D = experiment: In vitro transcription-translation (IVTT) reporter assay, KRAS G12D test sequence
Source text: All reporter constructs have been cloned into the pT7CFE1-CHis plasmid (ThermoFisher #88860) using Gibson assembly procedures (NEB #E2611L). The parental pT7CFE1-CHis plasmid contains an EMCV IRES at the 5′UTR for translation initiation, a multiple-cloning site (MCS) for gene insertion, an optional C-terminal His-epitope tag, and polyA sequence in the 3′UTR to regulate mRNA stability. All reporters are designed to be inserted at the MCS to include a red fluorescent protein (mCherry), P2A self-cleaving peptide which releases the preceding mCherry protein product, and a fusion open reading frame containing a 3×FLAG epitope, a peptide sequence of interest (TEST), and green fluorescent protein (sfGFP).
Construct Plasmid Preparation: All plasmids are isolated from MACH1 cells (ThermoFisher) grown overnight in ampicillin-containing luria broth, and purified using ZymoPure Express Plasmid Midiprep Kit (Zymo Research). Constructs are sequenced verified and diluted to a working concentration of 110 ng/μL.
HeLa S3 Lysate Preparation: HeLa S3 cell pellets are acquired from Ipracell/Ipratech (Belgium) and shipped as 4 mL frozen cell pellets on dry ice for storage at −80° C. until use. The procedure for lysate preparation is as follows. Prepare 1× Lysis Buffer, cold and stored on ice:
Each preparation takes 8 cell pellets (4 ml packed volume each, approximately 1.0×10^9 cells per pellet). Thaw cell pellets from −80° C. on ice for 90 mins. Lay pellets horizontally on top of the ice and rotate every 30 mins to ensure even thawing. Once thawed, add 4 mL of cold lysis buffer to each pellet, and using a serological pipet, gently pipet up and down to break up clumps. Incubate resuspended cells in ice for an additional 30 mins (plunged into ice). During 30 min incubation, rinse and RNase-zap (Ambion) glass dounces (use loose pestle “A”), gently dry and place on ice until needed. Prepare RNase-free Eppendorf tubes for spinning and for batch storage. Add batch labels to 1.5-1.7 mL RNase-free microcentrifuge tubes (labeling scheme below). Each batch will have an extra 1.5-1.7 mL RNase-free microcentrifuge tube for 40 μL of lysate, label the top of this tube (labeling scheme below). After 30 min incubation, transfer all 8 mL of cell pellet to dounce. Cell lysis is complete after douncing 100 times. Aliquot cell lysis into 1.5-1.7 mL temporary-microcentrifuge tubes. Place tubes in centrifuge with “fins” out, and spin at 1,200 xg for 5 mins. After the first spin use a 1 mL pipet to resuspend each tube and repeat spin. This acts as an additional lysis step, is more vigorous and increases lysate yield. During second spin get liquid N2 and a fresh conical tube on ice.
After spin is complete, transfer supernatant (lysate) from microcentrifuge tubes into the 50 mL conical tube and keep on ice. Repeat steps 10-14 for all other cell pellets until completed. Once all cell lysate has been transferred to the 50 mL conical tube pipet to mix so the solution is homogenous. Transfer 1 mL of lysate into batch-labeled microcentrifuge tubes and flash freeze in liquid nitrogen. Be sure to pipet up and down to mix throughout transfer step. Place all tubes in the […] for long-term storage.
In vitro transcription-translation assay setup: Each assay includes a master mix containing lysate and shared components, a 96-well plate containing compound titrations for testing, a 96-well DNA plate with reporter constructs to be tested, 96-well skirted PCR plates, and 96-well flat-bottom, black, fluorescent assay plates. […]

MYC = experiment: In vitro transcription-translation (IVTT) reporter assay, MYC test sequence
Procedure, shortened: (§1)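 Coupled transcription-translation in HeLa S3 lysate with reporter plasmids encoding mCherry-P2A-3×FLAG-TEST-sfGFP behind an EMCV IRES. Compounds were half-log titrated (30 μM-0.1 μM in DMSO dilution plate) into master mix, then DNA was added. Reactions ran 2 hrs at 30° C, were PBS-quenched and read for fluorescence.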

ALK = experiment: In vitro transcription-translation (IVTT) reporter assay, ALK test sequence
Procedure, shortened: as §1

Structure (SMILES) | IC50 (KRAS G12D) [µM] | IC50 (MYC) [µM] | IC50 (ALK) [µM]
COc1ccc(C[C@H]2NC[C@H](O)[C@H]2OC(=O)[C@@H]2CCCO2)cc1 [V186825, (2R,3S,4S)-4-hydroxy-2-[(4-methoxyphenyl)methyl]pyrrolidin-3-yl (2S)-oxolane-2-carboxylate] | < 10 | < 10 | < 10
COc1ccc(C[C@H]2NC[C@H](O)[C@H]2OC(=O)CCN2CC(=O)NCC2=O)cc1 [V186849, (2R,3S,4S)-4-hydroxy-2-[(4-methoxyphenyl)methyl]pyrrolidin-3-yl 3-(2,5-dioxopiperazin-1-yl)propanoate] | > 30 | 10 to 20 | < 10
COc1ccc(C[C@H]2NC[C@H](O)[C@H]2OC(=O)CCN2CCN(C)CC2)cc1 [V186858, (2R,3S,4S)-4-hydroxy-2-[(4-methoxyphenyl)methyl]pyrrolidin-3-yl 3-(4-methylpiperazin-1-yl)propanoate; trifluoroacetic acid] | > 30 | > 30 | > 30
COc1ccc(C[C@H]2NC[C@H](O)[C@H]2OC(=O)CCN2CC(=O)NC(=O)C2)cc1 [V186859, (2R,3S,4S)-4-hydroxy-2-[(4-methoxyphenyl)methyl]pyrrolidin-3-yl 3-(3,5-dioxopiperazin-1-yl)propanoate; trifluoroacetic acid] | < 10 | < 10 | < 10
COc1ccc(C[C@H]2NC[C@H](O)[C@H]2OC(=O)C2CC(=O)N2)cc1 (stereo partly drawn) [V186864, (2R,3S,4S)-4-hydroxy-2-[(4-methoxyphenyl)methyl]pyrrolidin-3-yl 4-oxoazetidine-2-carboxylate; trifluoroacetic acid] | > 30 | 10 to 20 | < 10
COc1ccc(C[C@H]2NC[C@H](O)[C@H]2OC(=O)C2CN(C(=O)C3CCOCC3)C2)cc1 [V186989, (2R,3S,4S)-4-hydroxy-2-[(4-methoxyphenyl)methyl]pyrrolidin-3-yl 1-(oxane-4-carbonyl)azetidine-3-carboxylate; trifluoroacetic acid] | > 30 | > 30 | > 30
COc1ccc(C[C@H]2NC[C@H](O)[C@H]2OC(=O)CCC2CCOCC2)cc1 [V186990, (2R,3S,4S)-4-hydroxy-2-[(4-methoxyphenyl)methyl]pyrrolidin-3-yl 3-(oxan-4-yl)propanoate; trifluoroacetic acid] | < 10 | < 10 | < 10
CC(=O)O[C@@H]1[C@@H](O)CN[C@@H]1Cc1ccc(Cl)cc1 [V187009, (2R,3S,4S)-2-[(4-chlorophenyl)methyl]-4-hydroxypyrrolidin-3-yl acetate; trifluoroacetic acid] | < 10 | < 10 | < 10
CC(=O)O[C@@H]1[C@@H](O)CN[C@@H]1Cc1ccc(Br)cc1 [V187010, (2R,3S,4S)-2-[(4-bromophenyl)methyl]-4-hydroxypyrrolidin-3-yl acetate; trifluoroacetic acid] | < 10 | < 10 | < 10
COc1ccc(C[C@H]2NC[C@H](O)[C@H]2OC(=O)C23CC(F)(C2)C3)cc1 [V187044, (2R,3S,4S)-4-hydroxy-2-[(4-methoxyphenyl)methyl]pyrrolidin-3-yl 3-fluorobicyclo[1.1.1]pentane-1-carboxylate; trifluoroacetic acid] | > 30 | 10 to 20 | < 10
COc1ccc(C[C@H]2NC[C@H](O)[C@H]2OC(=O)CCC2CC2)cc1 [V187063, (2R,3S,4S)-4-hydroxy-2-[(4-methoxyphenyl)methyl]pyrrolidin-3-yl 3-cyclopropylpropanoate; trifluoroacetic acid] | < 10 | < 10 | < 10
COc1ccc(C[C@H]2NC[C@H](O)[C@H]2OC(=O)COCc2ccc3nsnc3c2)cc1 [V187072, (2R,3S,4S)-4-hydroxy-2-[(4-methoxyphenyl)methyl]pyrrolidin-3-yl 2-(2,1,3-benzothiadiazol-5-ylmethoxy)acetate; trifluoroacetic acid] | < 10 | < 10 | < 10

Now from value to compound:

IC50 (KRAS G12D) [µM] | IC50 (MYC) [µM] | IC50 (ALK) [µM] | Structure (SMILES)
> 30 | > 30 | 20 to 30 | COc1ccc(C[C@H]2NC[C@H](O)[C@H]2OC(=O)CCN2CC(=O)N(C)CC2=O)cc1 [V186850]
> 30 | > 30 | < 10 | COc1ccc(C[C@H]2NC[C@H](O)[C@H]2OC(=O)CCN2CCNCC2)cc1 [V186857, (2R,3S,4S)-4-hydroxy-2-[(4-methoxyphenyl)methyl]pyrrolidin-3-yl 3-(piperazin-1-yl)propanoate]
> 30 | < 10 | < 10 | COc1ccc(C[C@H]2NC[C@H](O)[C@H]2OC(=O)C2CCO2)cc1 (stereo partly drawn) [V186865, (2R,3S,4S)-4-hydroxy-2-(4-methoxybenzyl)pyrrolidin-3-yl oxetane-2-carboxylate FA salt]
> 30 | 10 to 20 | < 10 | COc1ccc(C[C@H]2NC[C@H](O)[C@H]2OC(=O)C2CN(C(C)=O)C2)cc1 [V186866, (2R,3S,4S)-4-hydroxy-2-[(4-methoxyphenyl)methyl]pyrrolidin-3-yl 1-acetylazetidine-3-carboxylate]
10 to 20 | < 10 | < 10 | COc1ccc(C[C@H]2NC[C@H](O)[C@H]2OC(=O)CCN2C(=O)CNC2=O)cc1 [V186870, (2R,3S,4S)-4-hydroxy-2-[(4-methoxyphenyl)methyl]pyrrolidin-3-yl 3-(2,5-dioxoimidazolidin-1-yl)propanoate]
< 10 | < 10 | < 10 | COc1ccc(C[C@H]2NC[C@H](O)[C@H]2OC(=O)CCC2CNC2)cc1 [V186873, (2R,3S,4S)-4-hydroxy-2-[(4-methoxyphenyl)methyl]pyrrolidin-3-yl 3-(azetidin-3-yl)propanoate]
< 10 | < 10 | < 10 | C#Cc1ccc(C[C@H]2NC[C@H](O)[C@H]2OC(C)=O)cc1 [V186940]
< 10 | < 10 | < 10 | CC(=O)O[C@@H]1[C@@H](O)CN[C@@H]1Cc1ccc(C#N)cc1 [V187006, (2R,3S,4S)-2-[(4-cyanophenyl)methyl]-4-hydroxypyrrolidin-3-yl acetate; trifluoroacetic acid]
< 10 | < 10 | < 10 | COc1ccc(C[C@H]2NC[C@H](O)[C@H]2OC(=O)Cc2nnc(N)s2)cc1 [V187048, (2R,3S,4S)-4-hydroxy-2-[(4-methoxyphenyl)methyl]pyrrolidin-3-yl 2-(5-amino-1,3,4-thiadiazol-2-yl)acetate]
< 10 | < 10 | < 10 | COc1ccc(C[C@H]2NC[C@H](O)[C@H]2OC(=O)Cc2cc3ccccc3s2)cc1 [V187053, (2R,3S,4S)-4-hydroxy-2-[(4-methoxyphenyl)methyl]pyrrolidin-3-yl 2-(1-benzothiophen-2-yl)acetate]
< 10 | < 10 | < 10 | COc1ccc(C[C@H]2NC[C@H](O)[C@H]2OC(=O)Cc2cccnc2)cc1 [V187057, (2R,3S,4S)-4-hydroxy-2-[(4-methoxyphenyl)methyl]pyrrolidin-3-yl 2-(pyridin-3-yl)acetate]
> 30 | > 30 | 10 to 20 | COc1ccc(C[C@H]2NC[C@H](O)[C@H]2OC(=O)C2CC3(C2)CC(N(C)C)C3)cc1 (stereo partly drawn) [V187066, (2R,3S,4S)-4-hydroxy-2-[(4-methoxyphenyl)methyl]pyrrolidin-3-yl 6-(dimethylamino)spiro[3.3]heptane-2-carboxylate]
